Measurements taken from patent publication US20250115595A1, “INHIBITORS OF HYPOXIA-INDUCIBLE FACTORS” (The Johns Hopkins University, priority 2021, published 2025).

What was measured:
[1] = system: HIF target genes; test: RT-qPCR of HIF target gene expression in Hep3B cells; type: cell-based, human
Description: Based on hit compound 11-88, a number of analogs were prepared in which either halogen substitutions to the indole groups were altered or the central thiazole was replaced by imidazole, isoxazole, oxadiazole, oxazole, pyrazinone, pyridazine, pyrazine, pyrazole, pyridine, thiadiazole, triazine, or triazole. […] The bis-bromoindole thiazole 32-134D and the bis-indole thiadiazole 33-063 (FIGS. 1B and 1C) were further characterized with respect to endogenous HIF target gene expression in Hep3B cells. […] For comparison, we tested the effect of PT2385, which inhibited EPO, NDRG1, ANGPTL4, and VEGFA expression but had no effect on CA9, which is consistent with its HIF-2-selective mechanism of action (Wallace E M et al., Cancer Res. 2016; 76(18):5491-5500). None of the compounds had any effect on RPL13A expression, which is neither hypoxia-induced nor HIF-regulated (FIG. 3).
Human Hep3B and mouse Hepa1-6 cells were purchased from ATCC and grown in high-glucose (4.5 mg/ml) Dulbecco's modified Eagle's medium supplemented with 10% (vol/vol) fetal bovine serum and […] at 37° C. in a 5% CO2/95% air incubator (20% O2). Human cell line identity was authenticated by analysis of short tandem repeats, and all cell lines were maintained mycoplasma free, using PCR-based assays conducted at the Johns Hopkins University Genetic Resources Core Facility. Cells were subjected to hypoxia in a controlled atmosphere chamber (PLAS Labs) with ambient gas mixture containing 1% O2 and 5% CO2.
(§1) RNA was extracted using TRIzol Reagent (ThermoFisher). Quantitative Real-time PCR was conducted using SYBR Green PCR Master Mix (BioRad) and reactions were run using the BioRad thermal cycler (BioRad). The mRNA expression of target genes was normalized to the expression of 18S rRNA and the fold change (FC) was calculated based on the threshold cycle (Ct) as
FC=2^−Δ(ΔCt) where ΔCt=Cttarget gene−Ct18S rRNA and Δ(ΔCt)=ΔCttreatment−ΔCtcontrol.

[2] = system: intratumoral gene expression; test: RT-qPCR and ELISA of Hepa1-6 tumor tissue; type: in vivo, mouse
Description: as §1
Human (EPO, SCF, SDF1a, VEGFA) and mouse (Cxcl1, Cxcl2, Cxcl9, Cxcl10, Il6, Il10, IL22, Vegfa) protein concentrations in tumor homogenates were determined using ELISA kits (Table 4) from Novus Biologicals. Optical density was obtained at 450 nm (corrected for readings at 570 nm) using the VICTOR Nivo plate reader (PerkinElmer). Sample protein concentration was calculated by linear regression from a standard curve.

[3] = system: HIF-regulated vasoactive mediators; test: mRNA expression in hypoxic D120 hiPSC-derived retinal organoids; type: cell-based, human; settings: 1% O2, 12 hours
Description: To assess the therapeutic potential of 32-134D for diabetic patients, human induced pluripotent stem cell (hiPSC)-derived 3-dimensional (3D) retinal organoids were treated with 32-134D. It has been previously reported that hiPSC-derived 3D retinal organoids cultured under hypoxic conditions (1% O2) behave similar to ischemic human retinal tissue with increased accumulation of both HIF-1α and HIF-2α (J. Zhang et al., J Clin Invest 131 (2021)). By 120 days of differentiation (D120), the inner and outer retinal layers are clearly defined (FIGS. 32A and 32B) and contain the precursors of the major retinal cell types, including outer retina photoreceptors (expressing recoverin), few newly differentiating bipolar cell precursors (lacking expression of recoverin and Pax6), amacrine cells (expressing high levels of Pax6), as well as Müller cells (expressing CRALBP; FIGS. 32C and 32D). […]
Reverse transcription and quantitative real-time PCR: Total RNA was isolated from cultured cells or retinas with PureLink™ RNA Mini Kit (Invitrogen #12183025), and cDNA was prepared with MuLV Reverse Transcriptase (Applied Biosystems). Quantitative real-time PCR was performed with Power SYBR Green PCR Master Mix (Applied Biosystems) and MyiQ Real-Time PCR Detection System (Bio-Rad). […]

[4] = system: C57BL/6 mice; test: Laser CNV model, intraperitoneal dosing; type: in vivo, mouse
Description: The laser CNV model for neovascular (wet) age-related macular degeneration was used to assess the efficacy of 32-134D in blocking HIF-regulated gene expression in the eye (FIG. 20A). C57BL/6 mice were treated with laser on day 0. Beginning on day 2, mice were treated with 5 daily intraperitoneal (IP) injections (day 2 to day 6) with 32-134D at 40 mg/kg or with vehicle control. On day 7, choroidal flat mounts were prepared and stained with isolectin-B4 to examine the CNV lesions. The expression of Vegf (FIG. 20B) and Angpt14 (FIG. 20C) mRNA was also measured at day 7 following laser treatment.
C57BL/6 mice were treated with laser on day 0. Beginning on day 2, mice were treated with 5 daily IP injections (day 2 to day 6) with 32-134D at 40 mg/kg or with vehicle control. On day 7, mice were euthanized and choroidal flat mounts were stained with isolectin-B4 to examine the area of CNV lesions.

Brc1ccc2c(-c3csc(-c4c[nH]c5c(Br)cccc45)n3)c[nH]c2c1 [Compound 32-134D, 4-(6-bromo-1H-indol-3-yl)-2-(7-bromo-1H-indol-3-yl)thiazole]
hypoxia-induced expression of HIF target genes CA9, ANGPTL4, VEGFA, NDRG1 and EPO [1]: inhibited
tumor mRNAs encoding angiogenic factors and proteins mediating immunosuppression ([2]; Angpt14, Epo, Pgf, Vegfa, B7h4, Cd47, Cd70, Cd73, Glut1, Ldha, Pdl1, Tim3, RT-qPCR): significantly decreased
Cxcl1, Il10 and Vegfa protein levels in tumors ([2]; ELISA on tumor lysates): significantly decreased levels
Cxcl9 and Cxcl10 protein levels in tumors ([2]; ELISA on tumor lysates): significantly increased levels
tumor expression of Cxcl9 and Cxcl10 mRNA ([2]; RT-qPCR): increased
Cxcl1, Il6 and Il10 mRNA levels in tumor tissue ([2]; mouse, in vivo): decreased
IL22 mRNA and protein expression in Hepa1-6 tumors ([2]; mouse, in vivo): inhibited
expression of HIF-regulated vasoactive mediators (Vegf, Angpt14 mRNA) [3]: effectively prevented
Vegf mRNA in eyes ([4]; 40 mg/kg IP, day 7 after laser): significantly decreased
CNV lesions ([4]; 5 daily IP injections 40 mg/kg, day 7): marked decrease in CNV
Angpt14 mRNA expression in eyes ([4]; 20 or 40 mg/kg IP, day 7 after laser): significantly decreased
